Data taken from US10206394B2, “Herbicidal compounds” (Syngenta Participations AG, priority 2014, dated 2019).
Like-named read-outs stand apart in the source and are kept apart here.

Legend:
Assay in all cases: Glasshouse assay for herbicidal activity (pre- and post-emergence), percentage phytotoxicity
Type in all cases: in vivo
[1] = system: Alopecurus myosuroides (ALOMY); settings: Alopecurus myosuroides
Outline: (§1)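 Potted test plants in standard soil received the compound pre-emergence (day 1) or post-emergence (about day 12). Evaluation: visual damage score from 0% (none) to 100% (total), 15 days after application post-emergence, 20 days pre-emergence.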

[2] = system: Echinochloa crus-galli (ECHCG); settings: Echinochloa crus-galli
Outline: as §1

[3] = system: Lolium perenne (LOLPE); settings: Lolium perenne
Outline: as §1

[4] = system: Avena fatua (AVEFA); settings: Avena fatua
Outline: as §1

[5] = post-emergence, 360 h, POST-emergence, rate 250 g/ha, visual score 15 DAA (100%=total damage, 0%=no damage), read-out: Post-emergence herbicidal activity (percentage phytotoxicity) ALOMY POST
[6] = pre-emergence, 480 h, PRE-emergence, rate 250 g/ha, visual score 20 DAA (100%=total damage, 0%=no damage), read-out: Pre-emergence herbicidal activity (percentage phytotoxicity) ALOMY PRE
[7] = post-emergence, 360 h, POST-emergence, rate 250 g/ha, visual score 15 DAA (100%=total damage, 0%=no damage), read-out: Post-emergence herbicidal activity (percentage phytotoxicity) ECHCG POST
[8] = pre-emergence, 480 h, PRE-emergence, rate 250 g/ha, visual score 20 DAA (100%=total damage, 0%=no damage), read-out: Pre-emergence herbicidal activity (percentage phytotoxicity) ECHCG PRE
[9] = post-emergence, 360 h, POST-emergence, rate 250 g/ha, visual score 15 DAA (100%=total damage, 0%=no damage), read-out: Post-emergence herbicidal activity (percentage phytotoxicity) LOLPE POST
[10] = pre-emergence, 480 h, PRE-emergence, rate 250 g/ha, visual score 20 DAA (100%=total damage, 0%=no damage), read-out: Pre-emergence herbicidal activity (percentage phytotoxicity) LOLPE PRE
[11] = post-emergence, 360 h, POST-emergence, rate 250 g/ha, visual score 15 DAA (100%=total damage, 0%=no damage), read-out: Post-emergence herbicidal activity (percentage phytotoxicity) AVEFA POST
[12] = pre-emergence, 480 h, PRE-emergence, rate 250 g/ha, visual score 20 DAA (100%=total damage, 0%=no damage), read-out: Pre-emergence herbicidal activity (percentage phytotoxicity) AVEFA PRE

Cc1cc(-n2cc(Cl)cn2)cc(C)c1C1C(=O)CC(CC(=O)NC/C=C/Cl)C1=O (stereo not shown) [Compound B308]
pest or weed control at 250 g/ha [1, 5]: 90% | pest or weed control at 250 g/ha [1, 6]: 90% | pest or weed control at 250 g/ha [2, 7]: 100% | pest or weed control at 250 g/ha [2, 8]: 80% | pest or weed control at 250 g/ha [3, 9]: 60% | pest or weed control at 250 g/ha [3, 10]: 80% | pest or weed control at 250 g/ha [4, 11]: 100% | pest or weed control at 250 g/ha [4, 12]: 80%

COCCNC(=O)CC1CC(=O)C(c2c(C)cc(-n3cc(Cl)cn3)cc2C)C1=O (stereo not shown) [Compound A77]
pest or weed control at 250 g/ha ([1]; post-emergence, 360 h, Rate 250 g/ha, post-emergence, assessed visually 15 DAA, 100%=total damage, 0%=no damage, read-out: Post-emergence herbicidal activity (percentage phytotoxicity) ALOMY POST): 90% | pest or weed control at 250 g/ha ([1]; pre-emergence, 480 h, Rate 250 g/ha, pre-emergence, assessed visually 20 DAA, 100%=total damage, 0%=no damage, read-out: Pre-emergence herbicidal activity (percentage phytotoxicity) ALOMY PRE): 80% | pest or weed control at 250 g/ha ([2]; post-emergence, 360 h, Rate 250 g/ha, post-emergence, assessed visually 15 DAA, 100%=total damage, 0%=no damage, read-out: Post-emergence herbicidal activity (percentage phytotoxicity) ECHCG POST): 100% | pest or weed control at 250 g/ha ([2]; pre-emergence, 480 h, Rate 250 g/ha, pre-emergence, assessed visually 20 DAA, 100%=total damage, 0%=no damage, read-out: Pre-emergence herbicidal activity (percentage phytotoxicity) ECHCG PRE): 100% | pest or weed control at 250 g/ha ([3]; post-emergence, 360 h, Rate 250 g/ha, post-emergence, assessed visually 15 DAA, 100%=total damage, 0%=no damage, read-out: Post-emergence herbicidal activity (percentage phytotoxicity) LOLPE POST): 80% | pest or weed control at 250 g/ha ([3]; pre-emergence, 480 h, Rate 250 g/ha, pre-emergence, assessed visually 20 DAA, 100%=total damage, 0%=no damage, read-out: Pre-emergence herbicidal activity (percentage phytotoxicity) LOLPE PRE): 80% | pest or weed control at 250 g/ha ([4]; post-emergence, 360 h, Rate 250 g/ha, post-emergence, assessed visually 15 DAA, 100%=total damage, 0%=no damage, read-out: Post-emergence herbicidal activity (percentage phytotoxicity) AVEFA POST): 90% | pest or weed control at 250 g/ha ([4]; pre-emergence, 480 h, Rate 250 g/ha, pre-emergence, assessed visually 20 DAA, 100%=total damage, 0%=no damage, read-out: Pre-emergence herbicidal activity (percentage phytotoxicity) AVEFA PRE): 80%

C/C=C/c1cc(C)c(C2C(=O)CC(CC(=O)NCC3CC3)C2=O)c(C)c1 (stereo not shown) [Compound B247]
pest or weed control at 250 g/ha [1, 5]: 100% | pest or weed control at 250 g/ha [1, 6]: 90% | pest or weed control at 250 g/ha [2, 7]: 100% | pest or weed control at 250 g/ha [2, 8]: 60% | pest or weed control at 250 g/ha [3, 9]: 100% | pest or weed control at 250 g/ha [3, 10]: 80% | pest or weed control at 250 g/ha [4, 11]: 100% | pest or weed control at 250 g/ha [4, 12]: 80%

COc1cccc(CNC(=O)CC2CC(=O)C(c3c(C)cc(Br)cc3C)C2=O)c1 (stereo not shown) [Compound B132]
pest or weed control at 250 g/ha ([1]; post-emergence, 360 h, 250 g/ha, post-emergence, 15 DAA, visual assessment (100%=total damage, 0%=no damage), read-out: Post-emergence herbicidal activity (percentage phytotoxicity) ALOMY POST): 60% | pest or weed control at 250 g/ha ([1]; pre-emergence, 480 h, 250 g/ha, pre-emergence, 20 DAA, visual assessment (100%=total damage, 0%=no damage), read-out: Pre-emergence herbicidal activity (percentage phytotoxicity) ALOMY PRE): 80% | pest or weed control at 250 g/ha ([2]; post-emergence, 360 h, 250 g/ha, post-emergence, 15 DAA, visual assessment (100%=total damage, 0%=no damage), read-out: Post-emergence herbicidal activity (percentage phytotoxicity) ECHCG POST): 80% | pest or weed control at 250 g/ha ([2]; pre-emergence, 480 h, 250 g/ha, pre-emergence, 20 DAA, visual assessment (100%=total damage, 0%=no damage), read-out: Pre-emergence herbicidal activity (percentage phytotoxicity) ECHCG PRE): 20% | pest or weed control at 250 g/ha ([3]; post-emergence, 360 h, 250 g/ha, post-emergence, 15 DAA, visual assessment (100%=total damage, 0%=no damage), read-out: Post-emergence herbicidal activity (percentage phytotoxicity) LOLPE POST): 70% | pest or weed control at 250 g/ha ([3]; pre-emergence, 480 h, 250 g/ha, pre-emergence, 20 DAA, visual assessment (100%=total damage, 0%=no damage), read-out: Pre-emergence herbicidal activity (percentage phytotoxicity) LOLPE PRE): 80% | pest or weed control at 250 g/ha ([4]; post-emergence, 360 h, 250 g/ha, post-emergence, 15 DAA, visual assessment (100%=total damage, 0%=no damage), read-out: Post-emergence herbicidal activity (percentage phytotoxicity) AVEFA POST): 20% | pest or weed control at 250 g/ha ([4]; pre-emergence, 480 h, 250 g/ha, pre-emergence, 20 DAA, visual assessment (100%=total damage, 0%=no damage), read-out: Pre-emergence herbicidal activity (percentage phytotoxicity) AVEFA PRE): 30%

COCCOCCCNC(=O)CC1CC(=O)C(c2c(C)cc(C)cc2C)C1=O (stereo not shown) [Compound A179]
pest or weed control at 250 g/ha ([1]; post-emergence, 360 h, post-emergence, 250 g/ha, 15 DAA, visual score (100%=total damage; 0%=no damage), read-out: ALOMY POST herbicidal activity (percentage phytotoxicity)): 100% | pest or weed control at 250 g/ha ([1]; pre-emergence, 480 h, pre-emergence, 250 g/ha, 20 DAA, visual score (100%=total damage; 0%=no damage), read-out: ALOMY PRE herbicidal activity (percentage phytotoxicity)): 100% | pest or weed control at 250 g/ha ([2]; post-emergence, 360 h, post-emergence, 250 g/ha, 15 DAA, visual score (100%=total damage; 0%=no damage), read-out: ECHCG POST herbicidal activity (percentage phytotoxicity)): 100% | pest or weed control at 250 g/ha ([2]; pre-emergence, 480 h, pre-emergence, 250 g/ha, 20 DAA, visual score (100%=total damage; 0%=no damage), read-out: ECHCG PRE herbicidal activity (percentage phytotoxicity)): 80% | pest or weed control at 250 g/ha ([3]; post-emergence, 360 h, post-emergence, 250 g/ha, 15 DAA, visual score (100%=total damage; 0%=no damage), read-out: LOLPE POST herbicidal activity (percentage phytotoxicity)): 80% | pest or weed control at 250 g/ha ([3]; pre-emergence, 480 h, pre-emergence, 250 g/ha, 20 DAA, visual score (100%=total damage; 0%=no damage), read-out: LOLPE PRE herbicidal activity (percentage phytotoxicity)): 90% | pest or weed control at 250 g/ha ([4]; post-emergence, 360 h, post-emergence, 250 g/ha, 15 DAA, visual score (100%=total damage; 0%=no damage), read-out: AVEFA POST herbicidal activity (percentage phytotoxicity)): 100% | pest or weed control at 250 g/ha ([4]; pre-emergence, 480 h, pre-emergence, 250 g/ha, 20 DAA, visual score (100%=total damage; 0%=no damage), read-out: AVEFA PRE herbicidal activity (percentage phytotoxicity)): 90%
